In test [1] the target is Beta Secretase enzyme (BACE1) (Homo sapiens, UniProt P56817). Put plainly: In vitro enzymatic BACE FRET assay. The class given is biochemical. The note with it: read-out: BACE1 FRET assay IC50. In outline:
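Readout: dequenched fluorescence (ex 488 nm/[…]) after neutralizing with Tris buffer. Reactions, begun by adding 50 nM quenched peptide substrate spanning the BACE cleavage site, were incubated one hour at pH 4.2 in 0.05 M acetate with 100 uM genapol and 10% final DMSO.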

For test [2], the system named is Aβ40 in conditioned medium of cells stably expressing Amyloid Precursor Protein (APP). As to the kind of experiment: In vitro BACE cell-based assay (HEK cell assay), Aβ40 sandwich ELISA. To be noted: Homo sapiens, HEK293. The procedure, abridged:
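Aβ40 in conditioned medium was quantified by time-resolved fluorescence sandwich ELISA (pAb40 capture 3 h at 4 °C, biotin-6E10 detection 2 h at 4 °C) after 24 h compound exposure of APP-expressing cells. Doses spanned 10 points from 100 μM or 10 μM top, 0.1% DMSO; IC50 was derived from percent of control.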
On the technique in general: An ELISA detects its analyte on a solid surface through an enzyme-linked reagent.

Another test concerns the target T1, Cathepsin D (Cat D) (Homo sapiens, UniProt P07339).
T1 construct: Recombinant Cat D was expressed in CHO cells; made in house; host or cells: CHO cells
As to the kind of experiment: In vitro enzymatic Cathepsin D (Cat D) FRET assay. The format is biochemical. To be noted: read-out: CatD IC50. In outline:
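FRET read-out: a fluorophore/quencher-labelled peptide substrate is cleaved by 9 nM Cat D (recombinant, CHO-expressed) following a one-hour preincubation with inhibitor dilutions in DMSO. Tris buffer added to neutralize pH ends the reaction before fluorescence measurement.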

A value given as a limit tells only on which side of the number the result lay.

T1 sequence (P07339 65-412, species assumed): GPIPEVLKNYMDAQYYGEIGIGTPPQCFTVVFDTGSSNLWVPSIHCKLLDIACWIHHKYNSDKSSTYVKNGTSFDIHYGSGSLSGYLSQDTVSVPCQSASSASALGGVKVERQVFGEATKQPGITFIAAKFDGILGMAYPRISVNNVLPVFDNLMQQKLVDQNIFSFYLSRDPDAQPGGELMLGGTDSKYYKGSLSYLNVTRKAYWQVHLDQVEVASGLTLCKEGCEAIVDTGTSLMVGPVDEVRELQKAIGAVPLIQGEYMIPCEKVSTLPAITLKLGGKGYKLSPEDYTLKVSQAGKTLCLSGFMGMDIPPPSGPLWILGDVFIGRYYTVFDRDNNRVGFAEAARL
Chain of Beta Secretase enzyme (BACE1) (P56817 46-501): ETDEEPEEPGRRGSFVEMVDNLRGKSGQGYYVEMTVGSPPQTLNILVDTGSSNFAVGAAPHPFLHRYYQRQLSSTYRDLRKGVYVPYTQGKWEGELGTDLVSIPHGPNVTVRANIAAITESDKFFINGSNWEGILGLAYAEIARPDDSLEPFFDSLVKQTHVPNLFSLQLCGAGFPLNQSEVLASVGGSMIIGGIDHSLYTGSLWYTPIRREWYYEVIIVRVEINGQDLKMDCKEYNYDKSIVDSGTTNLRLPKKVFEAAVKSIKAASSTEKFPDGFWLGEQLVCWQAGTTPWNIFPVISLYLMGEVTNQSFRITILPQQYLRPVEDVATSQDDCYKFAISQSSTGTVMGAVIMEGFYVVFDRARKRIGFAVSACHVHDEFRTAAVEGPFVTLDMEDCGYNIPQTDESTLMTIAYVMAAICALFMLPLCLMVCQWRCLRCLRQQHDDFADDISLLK

On to `CC1(C)C(N)=N[C@](C)(c2cc(Nc3ncnc4cc(C#N)cnc34)cnc2F)CS1(=O)=O` [Example 384, 4-((5-((3R)-5-amino-3,6,6-trimethyl-1,1-dioxido-3,6-dihydro-2H-1,4-thiazin-3-yl)-6-fluoro-3-pyridinyl)amino)pyrido[3,2-d]pyrimidine-7-carbonitrile], for which the IC50 (usually the midpoint of a concentration-inhibition curve) in test [1] is 0.00636 µM; in test [2] it was 0.0239 µM; at Cathepsin D (Cat D), 47.3 µM.
In the case of `CC1(C)C(N)=N[C@](C)(c2cc(Nc3nccc4cc(C#N)cnc34)cnc2F)CS1(=O)=O` [Example 385, 8-((5-((3R)-5-amino-3,6,6-trimethyl-1,1-dioxido-3,6-dihydro-2H-1,4-thiazin-3-yl)-6-fluoro-3-pyridinyl)amino)-1,7-naphthyridine-3-carbonitrile], the IC50 in test [1] was 0.00262 µM; in test [2], 0.0037 µM; on Cathepsin D (Cat D), 67.6 µM.
As for `C[C@@]1(c2cc(Nc3nccc4cc(C#N)cnc34)cnc2F)CS(=O)(=O)C2(CCC2)C(N)=N1` [Example 386, 8-((5-((7R)-9-amino-7-methyl-5,5-dioxido-5-thia-8-azaspiro[3.5]non-8-en-7-yl)-6-fluoro-3-pyridinyl)amino)-1,7-naphthyridine-3-carbonitrile], the IC50 in test [1] turned out to be 0.00409 µM; in test [2] it was 0.0141 µM; on Cathepsin D (Cat D), 54.7 µM.
For `CC1(C)C(N)=N[C@](CF)(c2cc(Nc3nccc4cc(C#N)cnc34)ccc2F)CS1(=O)=O` [Example 387, 8-((3-((3S)-5-amino-3-(fluoromethyl)-6,6-dimethyl-1,1-dioxido-3,6-dihydro-2H-1,4-thiazin-3-yl)-4-fluorophenyl)amino)-1,7-naphthyridine-3-carbonitrile] the same measures were 0.00044 µM, 0.0053 µM and 117 µM.
For the compound `Cc1cc(Cl)cnc1C(=O)Nc1ccc(F)c([C@]2(C)CS(=O)(=O)[C@@](C)(F)C(N)=N2)c1` [Example 388, N-(3-((3R,6R)-5-amino-6-fluoro-3,6-dimethyl-1,1-dioxido-3,6-dihydro-2H-1,4-thiazin-3-yl)-4-fluorophenyl)-5-chloro-3-methyl-2-pyridinecarboxamide], the concentration for half-maximal inhibition (IC50) in test [1] is 0.0004 µM; in test [2], 0.0479 µM; on Cathepsin D (Cat D) it was 230 µM.
In the case of `CC1(C)C(N)=N[C@](CF)(c2cc(NC(=O)c3ccc(OCC#CCF)cn3)ccc2F)CS1(=O)=O` [Example 389, N-(3-((3S)-5-amino-3-(fluoromethyl)-6,6-dimethyl-1,1-dioxido-3,6-dihydro-2H-1,4-thiazin-3-yl)-4-fluorophenyl)-5-((4-fluoro-2-butyn-1-yl)oxy)-2-pyridinecarboxamide], the IC50 in test [1] stood at 0.00026 µM; in test [2] it was 0.0014 µM; on Cathepsin D (Cat D) it was 268 µM.
As to `Cc1c(C(=O)Nc2ccc(F)c([C@]3(CF)CS(=O)(=O)C(C)(C)C(N)=N3)c2)nc2ccc(C#N)cn12` [Example 390, N-(3-((3S)-5-amino-3-(fluoromethyl)-6,6-dimethyl-1,1-dioxido-3,6-dihydro-2H-1,4-thiazin-3-yl)-4-fluorophenyl)-6-cyano-3-methylimidazo[1,2-a]pyridine-2-carboxamide], the values for the IC50 (in test [1]; in test [2]; at Cathepsin D (Cat D)) were 0.00485 µM, 0.0236 µM and 379 µM, respectively.
`CC1(C)C(N)=N[C@](CF)(c2cc(NC(=O)c3cn4cc(Cl)ccc4n3)ccc2F)CS1(=O)=O` [Example 391, N-(3-((3S)-5-amino-3-(fluoromethyl)-6,6-dimethyl-1,1-dioxido-3,6-dihydro-2H-1,4-thiazin-3-yl)-4-fluorophenyl)-6-chloroimidazo[1,2-a]pyridine-2-carboxamide]: the concentration for half-maximal inhibition (IC50) stood at 0.00969 µM in test [1], 0.0361 µM in test [2] and 303 µM at Cathepsin D (Cat D).
Take `COc1ccc2nc(C(=O)Nc3ccc(F)c([C@]4(CF)CS(=O)(=O)C(C)(C)C(N)=N4)c3)c(C)n2c1` [Example 392, N-(3-((3S)-5-amino-3-(fluoromethyl)-6,6-dimethyl-1,1-dioxido-3,6-dihydro-2H-1,4-thiazin-3-yl)-4-fluorophenyl)-6-methoxy-3-methylimidazo[1,2-a]pyridine-2-carboxamide]: the IC50 in test [1] is 0.104 µM; in test [2], 0.823 µM; on Cathepsin D (Cat D) it was 97.6 µM.
As for `Cc1c(C(=O)Nc2ccc(F)c([C@]3(CF)CS(=O)(=O)C(C)(C)C(N)=N3)c2)nc2ccc(F)cn12` [Example 393, N-(3-((3S)-5-amino-3-(fluoromethyl)-6,6-dimethyl-1,1-dioxido-3,6-dihydro-2H-1,4-thiazin-3-yl)-4-fluorophenyl)-6-fluoro-3-methylimidazo[1,2-a]pyridine-2-carboxamide], the IC50 amounted to 0.0117 µM in test [1], 0.0605 µM in test [2] and 103 µM on Cathepsin D (Cat D).
As to `CCc1c(C(=O)Nc2ccc(F)c([C@]3(CF)CS(=O)(=O)C(C)(C)C(N)=N3)c2)nc2ccc(Cl)cn12` [Example 394, N-(3-((3S)-5-amino-3-(fluoromethyl)-6,6-dimethyl-1,1-dioxido-3,6-dihydro-2H-1,4-thiazin-3-yl)-4-fluorophenyl)-6-chloro-3-ethylimidazo[1,2-a]pyridine-2-carboxamide], the IC50 in test [1] is 0.0083 µM; in test [2], 0.0235 µM; on Cathepsin D (Cat D), greater than 14.8 µM.
As to `CC(C)c1c(C(=O)Nc2ccc(F)c([C@]3(CF)CS(=O)(=O)C(C)(C)C(N)=N3)c2)nc2ccc(Cl)cn12` [Example 395, N-(3-((3S)-5-amino-3-(fluoromethyl)-6,6-dimethyl-1,1-dioxido-3,6-dihydro-2H-1,4-thiazin-3-yl)-4-fluorophenyl)-6-chloro-3-(1-methylethyl)imidazo[1,2-a]pyridine-2-carboxamide], the 50% inhibitory concentration (IC50) came out at 0.0377 µM in test [1], 0.125 µM in test [2] and 822 µM at Cathepsin D (Cat D).
For the compound `Cc1cc(Cl)cnc1C(=O)Nc1ccc(F)c([C@]23C[C@H]2S(=O)(=O)C(C)(C)C(N)=N3)c1` [Example 396, N-(3-((1R,6R)-4-amino-3,3-dimethyl-2,2-dioxido-2-thia-5-azabicyclo[4.1.0]hept-4-en-6-yl)-4-fluorophenyl)-5-chloro-3-methyl-2-pyridinecarboxamide], the results for the IC50 (in test [1]; in test [2]; at Cathepsin D (Cat D)) were 0.00239 µM, 0.862 µM and 187 µM, respectively.
Taken in the same sequence, the figures for `Cc1nc(F)c([C@]2(C)CS(=O)(=O)C(C)(C)C(N)=N2)cc1NC(=O)c1ccc(Cl)cn1` [Example 397, N-(5-((3R)-5-amino-3,6,6-trimethyl-1,1-dioxido-3,6-dihydro-2H-1,4-thiazin-3-yl)-6-fluoro-2-methyl-3-pyridinyl)-5-chloro-2-pyridinecarboxamide] were 3.04 µM, 3.25 µM and 523 µM.
For `CC1(C)C(N)=N[C@](C)(c2cc(NC(=O)c3ccc(Cl)cn3)cnc2F)CS1(=O)=O` [Example 398, N-(5-((3R)-5-amino-3,6,6-trimethyl-1,1-dioxido-3,6-dihydro-2H-1,4-thiazin-3-yl)-6-fluoro-3-pyridinyl)-5-chloro-2-pyridinecarboxamide], the IC50 in test [1] amounted to 0.002 µM; in test [2] it was 0.0114 µM; at Cathepsin D (Cat D), 183 µM.
As to `CC1(C)C(N)=N[C@](C)(c2cc(NC(=O)c3ccc(F)cn3)cnc2F)CS1(=O)=O` [Example 399, N-(5-((3R)-5-amino-3,6,6-trimethyl-1,1-dioxido-3,6-dihydro-2H-1,4-thiazin-3-yl)-6-fluoro-3-pyridinyl)-5-fluoro-2-pyridinecarboxamide], the results for the IC50 (in test [1]; in test [2]; on Cathepsin D (Cat D)) were 0.0031 µM, 0.0393 µM and 419 µM, respectively.
Turning to `Cc1cc(OC(F)F)cnc1C(=O)Nc1cnc(F)c([C@]2(C)CS(=O)(=O)C(C)(C)C(N)=N2)c1` [Example 400, N-(5-((3R)-5-amino-3,6,6-trimethyl-1,1-dioxido-3,6-dihydro-2H-1,4-thiazin-3-yl)-6-fluoro-3-pyridinyl)-5-(difluoromethoxy)-3-methyl-2-pyridinecarboxamide], the IC50 in test [1] came out at 0.0014 µM; in test [2] it was 0.0089 µM; at Cathepsin D (Cat D), 156 µM.
For the compound `COc1ccc(C(=O)Nc2cnc(F)c([C@]3(C)CS(=O)(=O)C(C)(C)C(N)=N3)c2)nc1` [Example 401, N-(5-((3R)-5-amino-3,6,6-trimethyl-1,1-dioxido-3,6-dihydro-2H-1,4-thiazin-3-yl)-6-fluoro-3-pyridinyl)-5-methoxy-2-pyridinecarboxamide], the IC50 in test [1] was found to be 0.00398 µM; in test [2], 0.0179 µM; on Cathepsin D (Cat D) it was 757 µM.
As for `CC1(C)C(N)=N[C@](C)(c2cc(NC(=O)c3cnc(OCC(F)(F)F)cn3)cnc2F)CS1(=O)=O` [Example 402, N-(5-((3R)-5-amino-3,6,6-trimethyl-1,1-dioxido-3,6-dihydro-2H-1,4-thiazin-3-yl)-6-fluoro-3-pyridinyl)-5-(2,2,2-trifluoroethoxy)-2-pyrazinecarboxamide], the IC50 in test [1] came to 0.0011 µM; in test [2] it was 0.011 µM; at Cathepsin D (Cat D), 2780 µM.
In the case of `CC1(C)C(N)=N[C@](C)(c2cc(NC(=O)c3ccc(C#N)cn3)cnc2F)CS1(=O)=O` [Example 403, N-(5-((3R)-5-amino-3,6,6-trimethyl-1,1-dioxido-3,6-dihydro-2H-1,4-thiazin-3-yl)-6-fluoro-3-pyridinyl)-5-cyano-2-pyridinecarboxamide], the half-maximal inhibitory concentration (IC50) in test [1] was determined as 0.0019 µM; in test [2] it was 0.0146 µM; on Cathepsin D (Cat D), 233 µM.
